Columns and labels:
OVCAR 3 = assay: Cytotoxicity, propidium iodide assay, OVCAR 3; assay type: cell-based; details: Homo sapiens; Ovarian, OVCAR 3, 48 hours treatment; read-out: IC50, C3b (OVCAR 3)
Procedure, shortened: (§1)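 Cells seeded at 3000 cells/well, incubated 18-24 hours at 37° C./5% CO2, then exposed to a range of compound concentrations for 48 hours. After a PBS wash, 7 μg/ml propidium iodide was added, plates frozen at −70° C. for at least 24 hours, thawed and read by fluorescence; IC50 from viability relative to untreated wells.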

AsPC 1 = assay: Cytotoxicity, propidium iodide assay, AsPC 1; assay type: cell-based; details: Homo sapiens, ASPC1; Pancreatic, AsPC 1, 48 hours treatment; read-out: IC50, C5b (AsPC 1)
Procedure: The assay was designed as in the reference, Anticancer Drugs, 2002, 13, 1-8, the disclosure of which is incorporated by reference for the teaching of the assay.
Cells from cell lines as mentioned in the table given below were seeded at a density of 3000 cells/well in a white opaque 96-well plate. Following incubation at 37° C./5% CO2 for a period of 18-24 hours, the cells were treated with various concentrations (stock solution was prepared in DMSO and subsequent dilutions were made in media as per ATCC guidelines) of the compounds of Example 1-40 was for a period of 48 hours. At the end of treatment, the spent culture medium was discarded, the cells were washed with 1×PBS and 200 μl of 7 μg/ml propidium iodide was added to each well. The plates were frozen at −70° C. for at least 24 hours. For analysis, the plates were brought to RT, allowed to thaw and were read in PoleStar fluorimeter with the fluorescence setting. The percentage of viable cells in the non-treated set of wells was considered to be 100 and the percentage viability following treatment was calculated accordingly. IC50 values were calculated from graphs plotted using these percentages. Table 4 depicts the IC50 values of compounds of Example 1-40 in individual cell lines.
The abbreviations for the Cell Lines as used in Table 4 are: […]

A2780 = assay: Cytotoxicity, propidium iodide assay, A2780; assay type: cell-based; details: Homo sapiens; Ovarian, A2780, 48 hours treatment; read-out: IC50, C3a (A2780)
Procedure, shortened: as §1

TNF-α = assay: Human monocyte assay, LPS-stimulated TNF-α (ELISA); assay type: cell-based; details: human monocytes, 1 μg/ml LPS, 5 hours, read-out: TNFα (IC50)
Procedure: The assay was designed as in the reference, Physiol. Res., 2003, 52, 593-598, the disclosure of which is incorporated by reference for the teaching of the assay.
Peripheral blood mononuclear cells (hPBMC) were harvested from human blood and suspended in RPMI 1640 culture medium containing 10% FCS, 100 U/mL penicillin and […] streptomycin (assay medium). Monocytes in the hPBMCs were counted using a Coulter Counter following which the cells were resuspended at 2×10^5 monocytes/mL. A cell suspension containing 2×10^4 monocytes was aliquoted per well of a 96-well plate. Subsequently, the hPBMCs were incubated for 4-5 hours at 37° C. under 5% CO2 (During the incubation, the monocytes adhered to the bottom of 96-well plastic culture plate). Following the incubation, the non-adherent lymphocytes were washed with assay medium and the adherent monocytes re-fed with assay medium. After a 48-hour incubation period (37° C., 5% CO2), monocytes were pretreated with various concentrations of compounds of Example 1-40 (prepared in DMSO) or vehicle (0.5% DMSO) for 30 minutes and stimulated with 1 μg/ml LPS (Escherchia coli 0111:B4, Sigma Chemical Co., St. Louis, Mo.). The incubation was continued for 5 hours at 37° C., 5% CO2. Supernatants were harvested, assayed for IL-6 and TNF-α by ELISA as described by the manufacturer (BD Biosciences, USA). Dexamethasone (10 μM) was used as standard for this assay. The 50% inhibitory concentration (IC50) values were calculated by a nonlinear regression method. In all experiments, a parallel plate was run to ascertain the toxicity of compounds of Example 1-40. The toxicity was determined using the MTS assay as described in Am. J. Physiol. Cell Physiol., 2003, 285, C813-C822.

[1] = system: colorectal cancer (cell line HCT116) tumor model; assay: In vivo efficacy, HCT116 xenograft model in SCID mice; details: 50 mpk oral, every day for 14 days
Procedure: In-vivo efficacy of the compounds of the present invention was tested in colorectal cancer (cell line HCT116) tumor model Animals were housed and cared for in accordance with the Guidelines in force published by CPCSEA (Committee for the Purpose of Control and Supervision of Experiments on Animals), Tamil Nadu, India. Procedures using laboratory animals were approved by the IAEC (Institutional Animal Ethics Committee) of the Research Center of Piramal Life Sciences Limited, Mumbai, India.
Compound storage: All the compounds including standard were stored at 4-8° C. in an amber colored bottle. The compounds in solutions were also maintained at 4-8° C. in a refrigerator. Sample for animal injection was made fresh everyday.
Dose preparation: Required compound was weighed and mixed with 0.5% (w/v) carboxymethyl cellulose (CMC) and triturated with Tween-20 (secundum artum) with gradual addition of water to make up the final concentration.
Efficacy study in SCID mice: Severely Combined Immune-Deficient (SCID strain-CBySmn.CB17-Prkdc^scid/J, The Jackson Laboratory, Stock #001803) male mice weighing about 20 g of 6-9 weeks old were used in the study.
HCT116 cells were grown in McCoy's 5A medium containing 10% fetal calf serum in 5% CO2 incubator at 37° C. Cells were pelleted by centrifugation at 1000-rpm for 10 minutes. Cells were resuspended in sterile 1×PBS to get a count of 25×10^6 cells per mL, 0.2 mL of this cell suspension (corresponding to 5×10^6 cells) was injected by subcutaneous (s.c.) route in SCID mice. Mice were observed every alternate day for palpable tumor mass. Once the tumor size reached a size of 5-7 mm in diameter, animals were randomized into respective treatment groups. Dose was administered every day for 14 days. Tumor size was recorded on every second day.
Tumor weight (mg) was estimated according to the formula for a prolate ellipsoid: {Length (mm)×[width (mm)^2]×0.5}assuming specific gravity to be one and π to be three.
Tumor growth in compound treated animals was calculated as T/C (Treated/Control)×100% and Growth inhibition Percent (GI %) was [100−T/C %]. […]

Row | IC50 (TNF-α) [nM] | Compound | IC50 (OVCAR 3) [nM] | IC50 (AsPC 1) [nM] | IC50 (A2780) [nM] | % growth inhibition on 14th day [1] [%]
1 | – | Cc1cccc(S(=O)(=O)n2c(=O)n(-c3ccc(C(C)(C)C#N)cc3)c3c4cc(Br)ccc4ncc32)c1 [Example 3, 2-(4-(8-Bromo-2-oxo-3-(m-tolylsulfonyl)-2,3-dihydro-1H-imidazo[4,5-c]quinolin-1-yl)phenyl)-2-methylpropanenitrile] | 1000 to 3000 | 1000 to 3000 | ≤ 1000 | –
2 | ≤ 1000 | C/C=C/C(=O)n1c(=O)n(-c2ccc(C(C)(C)C#N)cc2)c2c3cc(Br)ccc3ncc21 [Example 27, (E)-2-(4-(8-Bromo-3-but-2-enoyl-2-oxo-2,3-dihydro-1H-imidazo[4,5-c]quinolin-1-yl)phenyl)-2-methylpropanenitrile] | ≤ 1000 | ≤ 1000 | > 3000 | 36
3 | ≤ 1000 | CC(C)(C#N)c1ccc(-n2c(=O)n(C(=O)c3ccccc3)c3cnc4ccc(Br)cc4c32)cc1 [Example 30, 2-(4-(3-Benzoyl-8-bromo-2-oxo-2,3-dihydro-1H-imidazo[4,5-c]quinolin-1-yl)phenyl)-2-methylpropanenitrile] | ≤ 1000 | 1000 to 3000 | ≤ 1000 | 35
4 | ≤ 1000 | CC(C)(C#N)c1ccc(-n2c(=O)n(C(=O)c3ccccc3)c3cnc4ccc(Cl)cc4c32)cc1 [Example 37, 2-(4-(3-Benzoyl-8-chloro-2-oxo-2,3-dihydro-1H-imidazo[4,5-c]quinolin-1-yl)phenyl)-2-methylpropanenitrile] | 1000 to 3000 | – | – | –
5 | ≤ 1000 | C/C=C/C(=O)n1c(=O)n(-c2ccc(C(C)(C)C#N)cc2)c2c3cc(Cl)ccc3ncc21 [Example 38, (E)-2-(4-(3-But-2-enoyl-8-chloro-2-oxo-2,3-dihydro-1H-imidazo[4,5-c]quinolin-1-yl)phenyl)-2-methylpropanenitrile] | ≤ 1000 | ≤ 1000 | > 3000 | 17

From patent US8637670B2, “Imidazo [4,5-C]quinoline derivatives and their use in the treatment of tumors and/or inflammation” (Piramal Enterprises Limited, priority 2009, dated 2014)
